Source: patent US8008286B2, “Method for treatment of neuropathic pain” (University of Virginia Patent Foundation, priority 2006, dated 2011)

Legend:
[1] = tested on: rat with a crushed sciatic nerve; experiment: Pain assay, 'trauma' model of neuropathic pain (crushed sciatic nerve), paw withdrawal latency with heat lamp; format: in vivo; settings: rats, 10 mg/kg IP once on day 0, tested each day
Method: Test compound, VPC01091 (Drug T, mixture of all isomers), was dissolved in 2% hydroxypropyl beta-cyclodextrin in water and administered to the test group of laboratory rats. The vehicle (Drug V: 2% hydroxypropyl beta-cyclodextrin in water) was administered to the control group of laboratory rats. Each group included 11 animals.
The identities of ‘Drug T’ and ‘Drug V’ were maintained in secret to prevent bias. The test solutions (test compound or vehicle) were intraperitoneally (IP) administered once (day 0), the dose was 10 mg/kg body weight. On day 0, each of the 22 animals was anesthetized, the sciatic nerve bundle on the right side exposed surgically, and crushed mechanically. This is known as the ‘trauma’ model of neuropathic pain. The animals were tested each day for the time required to lift either paw after illumination with small heat lamp.

SPHK2 enzyme = target: T1, SPHK2 enzyme (Homo sapiens, UniProt Q9NRA0); experiment: Phosphorylation by the SPHK2 enzyme in vitro; format: biochemical; settings: separated isomers of VPC01091, in vitro
T1 sequence (Q9NRA0 1-654): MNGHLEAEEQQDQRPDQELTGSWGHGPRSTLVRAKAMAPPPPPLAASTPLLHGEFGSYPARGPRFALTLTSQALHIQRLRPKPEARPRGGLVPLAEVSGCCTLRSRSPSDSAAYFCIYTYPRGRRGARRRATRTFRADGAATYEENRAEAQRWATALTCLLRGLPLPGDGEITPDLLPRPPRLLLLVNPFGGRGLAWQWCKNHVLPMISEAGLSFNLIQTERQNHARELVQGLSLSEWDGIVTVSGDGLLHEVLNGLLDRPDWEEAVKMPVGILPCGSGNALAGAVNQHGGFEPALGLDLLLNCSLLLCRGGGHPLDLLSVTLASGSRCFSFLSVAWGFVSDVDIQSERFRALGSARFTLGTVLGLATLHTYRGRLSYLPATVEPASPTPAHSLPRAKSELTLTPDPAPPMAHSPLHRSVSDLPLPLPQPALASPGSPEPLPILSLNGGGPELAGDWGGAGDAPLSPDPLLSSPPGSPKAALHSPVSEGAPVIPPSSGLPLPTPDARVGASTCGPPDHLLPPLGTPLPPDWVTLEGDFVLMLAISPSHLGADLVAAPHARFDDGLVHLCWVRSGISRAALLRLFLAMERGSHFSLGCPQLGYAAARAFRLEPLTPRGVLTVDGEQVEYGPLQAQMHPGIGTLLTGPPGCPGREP
Method: These compounds can be prepared as a mixture and separated by chromatography. Exemplary conditions for separation are as follows: Column: Chiralpak AD 4.6 mm ID×250 mm, Mobile Phase: Hex/EtOH/MeOH/DEA=95/2.5/2.5/0.03, Flow Rate: 1 mL/min, Detector: UV 220 nm, Column Temp: 40° C., or Column Temp: 25° C.

[2] = tested on: sciatic nerve injury (CCI) model; experiment: Sciatic nerve injury (CCI) model of neuropathic pain, mechanical allodynia; format: in vivo, rat; settings: rats, 3 mg/kg p.o. once a day for 5 days, started 2 weeks after nerve injury
Description: In these models, oral treatment with VPC01091-D was started 2 weeks following nerve injury, once the pain was established. A control group received only vehicle. Following once a day dosing for 5 days, […].) reversed mechanical allodynia by 42±8% in the CCI model. (See FIG. 5).

[3] = tested on: spinal nerve injury (SNL) model; experiment: Spinal nerve injury (SNL) model of neuropathic pain, mechanical allodynia; format: in vivo, rat; settings: rats, 3 mg/kg p.o., started 2 weeks after nerve injury
Description: In these models, oral treatment with VPC01091-D was started 2 weeks following nerve injury, once the pain was established. A control group received only vehicle.

phosphorylated by the SPHK2 enzyme in vitro (SPHK2 enzyme) | SMILES | analgesic effect (PWL time increases after injury), only on the affected side [1] | development of thermal hyperalgesia in the affected (crushed nerve) paw (PWL) [1] | reversed mechanical allodynia [2] | analgesic activity [3]
 | CCCCCCCCc1ccc(C2CCC(N)(CO)C2)cc1 (centres unmarked) [VPC01091, (1-amino-3-(4-octylphenyl)cyclopentyl)methanol] | exhibited an analgesic effect | prevented the development of thermal hyperalgesia |  | 
not phosphorylated | CCCCCCCCc1ccc([C@H]2CC[C@](N)(CO)C2)cc1 [VPC01091-D] |  |  | 42±8% | 50±10%
